Data reported in patent publication US20090325863A1, “Somatostatin analogs and IGF-I inhibition for breast cancer prevention” (priority 2008, published 2009).
“Also recorded” adds a separate entry of the source. Marks after values point to notes of the source that are not given here. Bridges are numbered along the chain shown (N, C = ends). Where no end group is shown, it is not given here.

Tests used:
[1] = test system: mammary hyperplasia induced by hGH and E2; assay: Mammary hyperplasia model induced by hGH and E2, counts in histological sections; format: in vivo, rat; conditions: for Total# / Mild# / Moderate# / Florid# / DH#: Table 3; for Total#: SOM230 30 mcg/h/kg, Octreotide 30 mcg/hr/kg, Tamoxifen 30 mg/21 day release pellet, GH + E2 control 88.3 ± 6.3; for Mild# / Moderate# / Florid# / DH#: same doses; for Mild#: GH + E2 control 4.4 ± 0.6; for Moderate#: GH + E2 control 5.3 ± 0.6; for Florid#: GH + E2 control 10 ± 0.7; for DH#: GH + E2 control 19.7 ± 1.5; for inhibitory effect on hyperplasia compared with SOM230 alone (in words): hGH+E2 model, 7 days, no dose response comparison
Description: To test whether SOM230, a drug that inhibits IGF-I action on the breast, was effective, we implemented a model of hyperplasia and then determined whether the hyperplasia could be inhibited by SOM230. We administered human growth hormone (600 mcg in alzet pumps) for a week, and gave this together with estradiol (an estrogen). At the end of 7 days florid hyperplasia developed. Mammary hyperplasia was modeled by treating hypophysectomized, oophorectomized female rats with high doses human growth hormone (hGH) (600 μg in Alzet pumps) and follicular phase concentrations of estradiol (E2) administered in silastic capsules for 7 days. In the absence of hGH, these animals would not undergo mammary development. In animals receiving E2 alone, there was virtually no hyperplasia. When hGH was added to E2 there were more glands (42.2±1.4 vs. 71.9±5.4, E2 vs. E2+hGH, respectively). There was no florid hyperplasia with E2 treatment. When hGH was given also, 26.6% of the glands were hyperplastic, with 50% of those being floridly hyperplastic, 7% moderate hyperplasia and 5.9% mild hyperplasia. […] This is shown in histological sections (FIG. 1), graphically (FIG. 2) and in tabular form below (TABLE 1).
Background: Antiestrogens or aromatase inhibitors are used for breast cancer chemoprevention. These treatments cause unpleasant side effects including hot flashes and vaginal dryness. We have previously shown that IGF-I is required to permit estrogen and progesterone action in the mammary gland. […] Menopausal symptoms would not likely to occur with SOM230 since estrogen is not lowered. Material and Methods: We have approached this issue in several ways. 1) We developed a model of hyperplasia in hypophysectomized and oophorectomized female rats. Hyperplasia was induced by treatment with 600 mcg hGH and follicular phase concentrations of estradiol. Hyperplasia was assessed histologically in sections of mammary gland. 2) To assess translatability to humans we assessed cell proliferation and apoptosis in normal human breast from reduction mammoplasties and samples of usual hyperplasia. 3) We also determined availability of SST receptors in samples of atypical ductal hyperplasia and DCIS, and 4) We have begun to determine whether SOM230 will prevent hyperplasia in humans at risk for breast cancer as it does in rats.
The degree of hyperplasia was analyzed in 3 histological sections at different levels in 3 test animals given GH+E2. The different types of hyperplasia were counted. For example, the total mean number of ducts was 88.3. Of those ducts, there were 19.7 or 22.3% of total ducts that were hyperplastic. The breakdown was a mean of 10 ducts with florid hyperplasia (lumen is distended and mostly obliterated by epithelial cells), a mean of 5.3 ducts with moderate hyperplasia (an increase in cell layers to >4 cells thick), and a mean of 4.4 characterized as mild hyperplasia (no more than 4 cell thickness).
There were 4 additional treatment groups and one E2 treated control group.

[2] = test system: hGH induced TEB formation; assay: Hyperplastic terminal endbuds (TEBs) in mammary gland whole mounts, hGH+E2 model; format: in vivo, rat; conditions: hGH+E2, 7 days; reduced from 86.5 (86) TEBs in hGH+E2 control
Description: At the end of 7 days one lumbar mammary gland was removed for whole mount analysis and the other for histological analysis. Hyperplastic TEBs were counted in the whole mounts. […] Representative photomicrographs of the whole mounts are provided in FIG. 5 and suppression by the different treatments is shown graphically in FIG. 6.

mammary development = assay: Mammary development of CD female mice (TEB, branch, area in whole mounts); format: in vivo
Method: The effect of PQ401 and Somatostatin 14 (SS14) on mammary development of CD female mice was determined. FIG. 10 depicts control animals at 21 and 28 days versus 28 day old animals treated with PQ401 for 7 days and 28 day old animals treated with SS14 for 7 days.

[3] = test system: pYIRS-1 (phosphorylated IRS-1), product of IGF-I action; assay: Immunostaining for phosphorylated IRS-1 in mammary gland, hGH+E2 model; format: in vivo, rat; conditions: hGH+E2 treated animals; staining most intense with hGH+E2
Description: FIG. 12 depicts immunostaining for pYIRS-1 (phosphorylated IRS-1) in a representative E2 treated control (upper left), an hGH+E2 treated animal (upper right), an hGH+E2+SOM230 treated animal (lower left) and an hGH+E2+tamoxifen treated animal (lower right). The intensity of staining parallels IGF-I action as phosphorylated IRS-1 is a product of IGF-I action. In this study, staining (brown color) was most intense in response to hGH+E2 and was inhibited by both SOM230 and tamoxifen. […] This reflection of inhibition of IGF-I activity also supports the greater inhibitory effect of SOM230 over that of tamoxifen.

[4] = test system: development of breast cancer; conditions: women with hyperplastic lesions of the breast; cited from earlier work

Row | Compound | Total# [1] | Mild# [1] | Moderate# [1] | Florid# [1] | DH# [1] | inhibitory effect on hyperplasia compared with SOM230 alone (in words) [1] | number of hyperplastic TEBs in whole mounts [2] | TEB (number) (mammary development; 28 day old CD female mice treated 7 days, PQ401 100/kgbw ip thrice weekly, SS14 15 mcg/hr/Kg Alzet pump, 28d control 18.6 ± 1.5) | area % (mammary development; same treatment, 28d control 52.2 ± 2.0, 21d control 23 ± 3.2) [%] | inhibitory effect on hyperplasia compared with SOM230 alone (in words) ([1]; listed as tamoxifen) | intensity of pYIRS-1 immunostaining [3] | prevention of the development of cancer [4]
1 | Octreotide | 76.3 ± 7.3 | 4.6 ± 0.8 | 5.8 ± 1.0 | 5.0 ± 0.8^e | 15.4 ± 2.6 | significantly lower than SOM230 alone | 60 | – | – | – | – | –
2 | Somatostatin 14: Somatostatin 14 (SS14) (AGCKNFFWKTFTSC; disulfide 3-14; ends not checked; UniProt P61278 103-116, looked up) | – | – | – | – | – | – | – | 18.5 ± 1.5 | 36.3 ± 6.2 | – | – | –
3 | CC/C(=C(\c1ccccc1)c1ccc(OCCN(C)C)cc1)c1ccccc1 [Tamoxifen] | 74.2 ± 7.7 | 3.6 ± 0.4 | 4.8 ± 0.6 | 4.5 ± 0.6^e | 12.4 ± 1.5 | significantly less effective than SOM230 | 49 | – | – | significantly lower than SOM230 alone | inhibited; also recorded: more intense than in the SOM230 treated one | about 50%
